Key:
renin mRNA in the kidney = experiment: Renin mRNA in the kidney of treated mice (Northern blot); format: in vivo, mouse; conditions: wildtype mice
Description: A. […] The 2 doses were given in two consecutive days at 9 am. The 5 doses were given in three consecutive days at 9 am and 7 pm for the first two days, and at 9 am on the third day. Total renal RNA was isolated 6 hr after the last injection. Renin, calbindin-D9k (CaBP-D9k) and 36B4 mRNA levels were determined by Northern blot analysis. B. Quantitation of renin mRNA levels.
(A) Blood ionized calcium levels.
As a control for vitamin D action, Calbindin-D9k stimulation was measured. Quantitative data were presented below the Northern blot gels.
Total kidney RNAs were separated on agarose gels (20 μg/lane). Membranes were hybridized sequentially with 32P-labeled renin and 36B4 cDNA probes. The relative amount of renin mRNA was quantitated after being normalized with 36B4 mRNA levels. […] (B) Quantitative results-from Northern blots in (A).
Animals and treatment. […] VDR^−/− and Gcm2^−/− mice were generated through breeding of heterozygous mice and identified by PCR with tail genomic DNA as the template, and the wild-type littermates were used as controls. […] To increase the sodium load, mice were fed the normal rodent diet supplemented with 8% NaCl for 1, 3, 5 and 7 days. […] Wild-type mice were injected (i.p.) with vehicle or 30 pmole of 1,25(OH)2D3 dissolved in propylene glycol. Mice were sacrificed by exsanguination under anesthesia and the blood was collected into ice-cold tubes for serum isolation, or into ice-cold tubes containing 50 μl of EDTA (pH 8.0) and 100 U/ml aprotinin for plasma isolation. The determination of water and food intake, as well as urine collection, were carried out by using metabolic cages.
RNA isolation and northern blot. The kidney and liver were dissected and immediately placed into the Trizol Reagent (Invitrogen, Grand Island, N.Y.) for total RNA isolation according to the manufacturer's instruction. […] Mouse renin and angiotensinogen cDNA probes were labeled with ^32P-dATP (ICN, Costa Mesa, Calif.) using the Prime-a-gene Labeling System (Promega, Madison, Wis.). After hybridization and washing, membranes were exposed to X-ray films at −80° C. for autoradiography. The relative amount of mRNA was quantitated using a Phospholmager (Molecular Dynamics, Sunnyvale, Calif.) and normalized with 36B4 mRNA.

[1] = test system: 4.1 kb renin gene promoter (Ren-1c), As4.1-hVDR cells; experiment: Renin gene promoter luciferase reporter assay in As4.1-hVDR cells; format: cell-based, mouse; conditions: 10^−8 M
Excerpt: As4.1-hVDR cells were transfected with pGL-4.1 kb-Luc, and treated with ethanol (E), 10^−8 M of 1,25(OH)2D3 (VD3) and different analogues as indicated.
A. Expression of hVDR mRNA in stable As4.1 clones. P, parental As4.1 cells; #57, As4.1 clone 57 stably transfected with pcDNA-hVDR; V, As4.1 clone stably transfected with the empty vector pcDNA3.1. B. Renin mRNA expression in As4.1 clone V (Vector) and #57 treated with ethanol (E) or different doses of 1,25(OH)2D3 as indicated. c. As4.1-hVDR cells (clone #57) were transfected with pGL3-Control, pGL-4.1 kb or pGL-117 bp luciferase reporter plasmid and then treated with ethanol (closed bar) or 10^−8 M of 1,25(OH)2D3 (open bar). Luciferase activity was determined 48 hr after transfection. Similar results were obtained in other stable clones.
Renin gene promoter analysis. Plasmid pR1C-4.1 CAT that contains 4.1 kb 5′-flanking sequence of mouse Ren-1^c gene (Petrovic et al. 1996) was provided by Dr. K. W. Gross (Roswell Park Cancer Institute, Buffalo, N.Y.). To generate pGL-117 bp reporter plasmid, the 123 bp renin minimal promoter fragment (+6 to −117) was released from pR1C-4.1 CAT with XbaI and BamHI and inserted into the HindIII site of pGL3-basic vector (Promega, Madison, Wis.). To generate pGL-4.1 kb reporter plasmid, the BamHI fragment (−4.1 kb to −118 bp) from pRI C-4.1 CAT was inserted into the BglII site of pGL-117 bp. To analyze the activity of renin gene promoter, As4.1-hVDR cells were transfected with the reporter plasmids by electroporation according to Shi et al. (2001) using a Bio-Rad Gene Pulser (Bio-Rad, Hercules, Calif.). pCMV-β-gal plasmid was co-transfected as an internal control. pGL3-control plasmid (Promega) was used as the positive control. The transfected cells were treated with ethanol or 10^−8 M of 1,25(OH)2D3 in Opti-MEM medium (Invitrogen) containing 2% charcoal-treated FBS four hr after electroporation, and luciferase activity was determined at 48 hr after initial transfection, using the Luciferase Assay System (Promega). Luciferase activity was normalized to β-gal activity obtained from the same electroporation, and presented as fold induction based on the basal activity of pGL3-basic empty vector determined in the same experiment.

Compound: C=C1/C(=C\C=C2/CCC[C@]3(C)[C@@H]([C@H](C)CCCC(C)(C)O)CC[C@@H]23)C[C@@H](O)C[C@@H]1O [1,25-dihydroxyvitamin D3]
- mRNA of renal calbindin-D9k (renin mRNA in the kidney; 30 pmole/dose i.p., control vitamin D target gene): significantly increased
- Decrease of renal renin expression (renin mRNA in the kidney; five doses of 30 pmole i.p. in three days): 50%
- Decrease of renal renin expression (renin mRNA in the kidney; two doses of 30 pmole/dose i.p. in two consecutive days): 35%
- Effect on the activity of the SV40 promoter in pGL3-Control plasmid ([1]; As4.1-hVDR cells): no effect
- Reduction of the activity of the 4.1 kb renin gene promoter ([1]; pGL-4.1 kb, luciferase at 48 hr after transfection): more than 80%

Reference: patent US20050113348A1, “Vitamin D and vitamin D analogs or derivatives as new anti-hypertensive agents” (priority 2003, published 2005)
